# Key:
# Format in all cases: biochemical
# [1] = molecular target: HSD17B1 (Homo sapiens (Human), UniProt P14061); experiment: HSD17B1 enzymatic blocking assay; conditions: 25 μM Estradiol, 500 μM NAD; read-out: Inhibition of HSD17B1 IC50
# Method: To screen compounds of the disclosure for their ability to block HSD17B1 function, an enzymatic blocking assay was performed. For the assay, HSD17B1 activity was measured by detecting NADH formation from oxidation of Estradiol using a NADH Glo luminescence assay (Promega, #Cat. No. G9062). […] Compounds were incubated with the enzyme for 30 minutes at room temperature. […] DMSO at a concentration of 0.5% was used as a negative control and a ‘no substrate’ control was used a positive control in the assay. Detection reagent was then added as per manufacturer's instructions, and the plate was subsequently incubated in the dark for 1 hour at room temperature, NADH generated was detected in the luminescence mode on the Envision Perkin Elmer plate reader. The IC50 values were determined using Dotmatics analysis software.
# [2] = molecular target: HSD17B13 (Homo sapiens (Human), UniProt Q7Z5P4); experiment: HSD17B13 enzymatic inhibition assay (150 nM or 50 nM HSD17B13); conditions: 50 nM HSD17B13; read-out: Inhibition of 50 nM of HSD17B13 IC50
# [3] = molecular target: HSD17B2 (Homo sapiens (Human), UniProt P37059); experiment: HSD17B2 enzymatic blocking assay; conditions: 1.8 μM Estradiol, 650 μM NAD; read-out: Inhibition of HSD17B2 IC50
# Method: To screen compounds of the disclosure for their ability to block HSD17B2 function, an enzymatic blocking assay was performed. For the assay, HSD17B2 activity was measured by detecting NADH formation from oxidation of Estradiol using a NADH Glo luminescence assay (Promega, #Cat. No. G9062). Compounds of the disclosure were evaluated in a dose titration assay where the compounds were titrated at 10-point dose curve using an Echo-555 liquid handling dispenser. HSD17B2 (SEQ ID NO: 3, expressed in mammalian cells) was added at a final concentration of 2 ng/μL in a buffer containing 50 mM Tris-HCl, pH 7.5, Pluronic F-127 0.05%, Tween20 0.01%, BSA 0.01% into a low volume white 384-well assay plate. Compounds were incubated with the enzyme for 15 min at 20° C. The assay reaction was then initiated by addition of 1.8 μM Estradiol substrate (Sigma, catalog #E2758-250MG, CAS: 50-28-2) and 650 μM NAD co-factor, and the reaction mixture was incubated for 45 min at 20° C. DMSO at a concentration of 0.5% was used as a negative control and a ‘no substrate’ control was used a positive control in the assay. Detection reagent was then added as per manufacturer's instructions, and the plate was subsequently incubated in the dark for 1 hour at room temperature, NADH generated was detected in the luminescence mode on the Envision Perkin Elmer plate reader. The IC50 values were determined using Dotmatics analysis software.
# Sequence of HSD17B13 (Q7Z5P4 other isoform, or with tags, fused parts or gaps): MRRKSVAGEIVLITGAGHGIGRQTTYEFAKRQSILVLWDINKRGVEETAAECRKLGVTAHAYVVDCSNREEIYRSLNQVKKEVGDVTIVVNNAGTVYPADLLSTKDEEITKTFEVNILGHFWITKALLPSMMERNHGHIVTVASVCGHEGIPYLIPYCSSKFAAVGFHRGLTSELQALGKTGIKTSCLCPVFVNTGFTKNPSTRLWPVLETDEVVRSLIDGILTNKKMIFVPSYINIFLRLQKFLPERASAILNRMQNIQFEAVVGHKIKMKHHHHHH
# Sequence of HSD17B2 (P37059 other isoform, or with tags, fused parts or gaps): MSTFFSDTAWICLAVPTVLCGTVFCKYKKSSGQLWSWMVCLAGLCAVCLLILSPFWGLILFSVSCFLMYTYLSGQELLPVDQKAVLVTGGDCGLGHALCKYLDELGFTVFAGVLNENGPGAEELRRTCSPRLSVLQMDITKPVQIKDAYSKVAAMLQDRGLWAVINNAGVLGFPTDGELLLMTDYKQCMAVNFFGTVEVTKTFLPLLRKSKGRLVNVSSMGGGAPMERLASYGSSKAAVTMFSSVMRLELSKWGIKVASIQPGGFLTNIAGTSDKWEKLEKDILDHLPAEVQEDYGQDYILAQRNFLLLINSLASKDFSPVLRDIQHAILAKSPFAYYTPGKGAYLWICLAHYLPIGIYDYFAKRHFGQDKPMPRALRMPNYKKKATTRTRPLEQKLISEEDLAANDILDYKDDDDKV
# Sequence of HSD17B1 (P14061 other isoform, or with tags, fused parts or gaps): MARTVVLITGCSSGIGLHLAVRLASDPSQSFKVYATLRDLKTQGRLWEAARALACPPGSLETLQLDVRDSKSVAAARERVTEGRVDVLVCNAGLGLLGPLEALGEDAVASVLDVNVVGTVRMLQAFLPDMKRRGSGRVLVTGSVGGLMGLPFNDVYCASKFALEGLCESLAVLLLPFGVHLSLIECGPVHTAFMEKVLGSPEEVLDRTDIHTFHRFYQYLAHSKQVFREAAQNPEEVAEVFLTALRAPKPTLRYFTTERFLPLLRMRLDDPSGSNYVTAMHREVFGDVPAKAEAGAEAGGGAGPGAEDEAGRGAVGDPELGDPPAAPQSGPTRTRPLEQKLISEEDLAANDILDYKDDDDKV
IC50 [1],IC50 [2],IC50 [3],Compound
8.59 µM,0.25 µM,17.5 µM,"O=C(NC1c2ccccc2-c2ccc(C(F)(F)F)cc21)c1ccc(C(F)(F)F)[nH]c1=O (stereo not drawn) [Compound 414, 2-oxo-6-(trifluoromethyl)-N-(2-(trifluoromethyl)-9H-fluoren-9-yl)-1,2-dihydropyridine-3-carboxamide]"
20 µM,0.07 µM,14.8 µM,"COc1ccc2c(c1)C(NC(=O)c1ccc(C(F)(F)F)[nH]c1=O)c1ccccc1-2 (stereo not drawn) [Compound 416, N-(2-methoxy-9H-fluoren-9-yl)-2-oxo-6-(trifluoromethyl)-1,2-dihydropyridine-3-carboxamide]"
13.5 µM,0.1 µM,47.9 µM,"Cc1ccc2c(c1)C(NC(=O)c1ccc(C(F)(F)F)[nH]c1=O)c1ccccc1-2 (stereo not drawn) [Compound 417, N-(2-methyl-9H-fluoren-9-yl)-2-oxo-6-(trifluoromethyl)-1,2-dihydropyridine-3-carboxamide]"
> 30 µM,0.63 µM,> 100 µM,"CNc1cccc(C(NC(=O)c2ccc(C(F)(F)F)[nH]c2=O)c2ccc(C)cc2)c1 (stereo not drawn) [Compound 419, N-((3-(methylamino)phenyl)(p-tolyl)methyl)-2-oxo-6-(trifluoromethyl)-1,2-dihydropyridine-3-carboxamide]"
25.1 µM,0.36 µM,11.3 µM,"Cc1ccc(C(NC(=O)c2ccc(C(F)(F)F)[nH]c2=O)C2CCCCC2)cc1 (stereo not drawn) [Compound 421, N-(cyclohexyl(p-tolyl)methyl)-2-oxo-6-(trifluoromethyl)-1,2-dihydropyridine-3-carboxamide]"
10.7 µM,0.16 µM,17.3 µM,"Cc1ccc(C(CC2CCCCC2)NC(=O)c2ccc(C(F)(F)F)[nH]c2=O)cc1 (stereo not drawn) [Compound 422, N-(2-cyclohexyl-1-(p-tolyl)ethyl)-2-oxo-6-(trifluoromethyl)-1,2-dihydropyridine-3-carboxamide]"
23.5 µM,0.11 µM,59.4 µM,"Cc1ccc2c(c1)Oc1cc(C)ccc1C2NC(=O)c1cc(N2CCN(C)CC2)c(C(F)(F)F)[nH]c1=O [Compound 435, N-(3,6-dimethyl-9H-xanthen-9-yl)-5-(4-methylpiperazin-1-yl)-2-oxo-6-(trifluoromethyl)-1,2-dihydropyridine-3-carboxamide]"
6.19 µM,0.09 µM,27.3 µM,"Cc1ccc2c(c1)Oc1cc(C)ccc1C2NC(=O)c1cc(N2CCCCC2)c(C(F)(F)F)[nH]c1=O [Compound 436, N-(3,6-dimethyl-9H-xanthen-9-yl)-2-oxo-5-(piperidin-1-yl)-6-(trifluoromethyl)-1,2-dihydropyridine-3-carboxamide]"
10.7 µM,0.05 µM,23.5 µM,"Cc1ccc2c(c1)Oc1cc(C)ccc1C2NC(=O)c1cc(N2CCOCC2)c(C(F)(F)F)[nH]c1=O [Compound 438, N-(3,6-dimethyl-9H-xanthen-9-yl)-5-morpholino-2-oxo-6-(trifluoromethyl)-1,2-dihydropyridine-3-carboxamide]"
14.8 µM,0.23 µM,42.9 µM,"CSc1cccc(C(NC(=O)c2ccc(C(F)(F)F)[nH]c2=O)c2ccc(C)cc2)c1 (stereo not drawn) [Compound 445, N-((3-(methylthio)phenyl)(p-tolyl)methyl)-2-oxo-6-(trifluoromethyl)-1,2-dihydropyridine-3-carboxamide]"
12.9 µM,0.03 µM,25 µM,"Cc1ccc2c(c1)Oc1cc(C)ccc1C2NC(=O)c1cc(C2CCCCC2)c(C(F)(F)F)[nH]c1=O [Compound 460, 5-cyclohexyl-N-(3,6-dimethyl-9H-xanthen-9-yl)-2-oxo-6-(trifluoromethyl)-1,2-dihydropyridine-3-carboxamide]"
7.64 µM,0.04 µM,45.4 µM,"Cc1ccc2c(c1)Oc1cc(C)ccc1C2NC(=O)c1cc(C2CCOCC2)c(C(F)(F)F)[nH]c1=O [Compound 461, N-(3,6-dimethyl-9H-xanthen-9-yl)-2-oxo-5-(tetrahydro-2H-pyran-4-yl)-6-(trifluoromethyl)-1,2-dihydropyridine-3-carboxamide]"
2.04 µM,0.03 µM,19.7 µM,"Cc1ccc2c(c1)Sc1cc(C)ccc1C2NC(=O)c1cc(-c2ccncc2)c(C(F)(F)F)[nH]c1=O [Compound 495, N-(3,6-dimethyl-9H-thioxanthen-9-yl)-6-oxo-2-(trifluoromethyl)-1,6-dihydro-[3,4′-bipyridine]-5-carboxamide]"
4.86 µM,0.03 µM,9.8 µM,"Cc1ccc2c(c1)Oc1cc(C)ccc1C2NC(=O)c1cc(-c2cncnc2)c(C(F)(F)F)[nH]c1=O [Compound 499, N-(3,6-dimethyl-9H-xanthen-9-yl)-2-oxo-5-(pyrimidin-5-yl)-6-(trifluoromethyl)-1,2-dihydropyridine-3-carboxamide]"
2.67 µM,0.02 µM,14.8 µM,"Cc1ccc2c(c1)Oc1cc(C)ccc1C2NC(=O)c1cc(Cc2ccccc2)c(C(F)(F)F)[nH]c1=O [Compound 500, 5-benzyl-N-(3,6-dimethyl-9H-xanthen-9-yl)-2-oxo-6-(trifluoromethyl)-1,2-dihydropyridine-3-carboxamide]"
> 30 µM,0.34 µM,46 µM,"Cc1ccc2c(c1)Oc1cc(C)ccc1C2NC(=O)c1cc(C2=CCN(C)CC2)c(C(F)(F)F)[nH]c1=O [Compound 501, N-(3,6-dimethyl-9H-xanthen-9-yl)-1′-methyl-6-oxo-2-(trifluoromethyl)-1,1′,2′,3′,6,6′-hexahydro-[3,4′-bipyridine]-5-carboxamide]"
19.7 µM,0.06 µM,39.4 µM,"Cc1ccc2c(c1)Oc1cc(C)ccc1C2NC(=O)c1cc(-c2ccncc2)c(C(F)(F)F)[nH]c1=O [Compound 504, N-(3,6-dimethyl-9H-xanthen-9-yl)-6-oxo-2-(trifluoromethyl)-1,6-dihydro-[3,4′-bipyridine]-5-carboxamide]"
3.3 µM,0.02 µM,45.8 µM,"Cc1ccc2c(c1)Oc1cc(C)ccc1C2NC(=O)c1cc(-c2cnccn2)c(C(F)(F)F)[nH]c1=O [Compound 508, N-(3,6-dimethyl-9H-xanthen-9-yl)-2-oxo-5-(pyrazin-2-yl)-6-(trifluoromethyl)-1,2-dihydropyridine-3-carboxamide]"
3.48 µM,0.01 µM,11.9 µM,"Cc1ccc2c(c1)Oc1cc(C)ccc1C2NC(=O)c1cc(-c2ncccn2)c(C(F)(F)F)[nH]c1=O [Compound 509, N-(3,6-dimethyl-9H-xanthen-9-yl)-2-oxo-5-(pyrimidin-2-yl)-6-(trifluoromethyl)-1,2-dihydropyridine-3-carboxamide]"
2.19 µM,0.02 µM,5.53 µM,"Cc1ccc2c(c1)Oc1cc(C)ccc1C2NC(=O)c1cc(-c2ccccn2)c(C(F)(F)F)[nH]c1=O [Compound 510, N-(3,6-dimethyl-9H-xanthen-9-yl)-6′-oxo-2′-(trifluoromethyl)-1′,6′ dihydro-[2,3′-bipyridine]-5′-carboxamide]"
6.13 µM,0.05 µM,16.2 µM,"C=CCc1cc(C(=O)NC2c3ccc(C)cc3Oc3cc(C)ccc32)c(=O)[nH]c1C(F)(F)F [Compound 511, 5-allyl-N-(3,6-dimethyl-9H-xanthen-9-yl)-2-oxo-6-(trifluoromethyl)-1,2-dihydropyridine-3-carboxamide]"
7.22 µM,1.35 µM,> 100 µM,"CN1c2ccccc2C(NC(=O)c2ccc(C(F)(F)F)[nH]c2=O)c2ccccc21 [Compound 519, N-(10-methyl-9,10-dihydroacridin-9-yl)-2-oxo-6-(trifluoromethyl)-1,2-dihydropyridine-3-carboxamide]"
13.7 µM,0.02 µM,25.3 µM,"Cc1ccc2c(c1)Oc1cc(C)ccc1C2NC(=O)c1cc(CCc2ccccc2)c(C(F)(F)F)[nH]c1=O [Compound 520, N-(3,6-dimethyl-9H-xanthen-9-yl)-2-oxo-5-phenethyl-6-(trifluoromethyl)-1,2-dihydropyridine-3-carboxamide]"

Compound,IC50 [1],IC50 [2],IC50 [3]
"Cc1ccc2c(c1)OC1CCCCC1C2NC(=O)c1ccc(C(F)(F)F)[nH]c1=O (stereo not drawn) [Compound 409, N-(6-methyl-2,3,4,4a,9,9a-hexahydro-1H-xanthen-9-yl)-2-oxo-6-(trifluoromethyl)-1,2-dihydropyridine-3-carboxamide]",> 30 µM,0.04 µM,29.7 µM

# From patent US11957687B2 (REGENERON PHARMACEUTICALS, INC., priority 2019, dated 2024)
